Data from patent US20250099486A1, “WOUND HEALING MEDICAMENT” (The University of Sheffield, priority 2017, published 2025).

Test system: full-thickness wounds (20 mm)
Assay: Full-thickness excisional rat wound model
Type: in vivo, male Sprague-Dawley (SD) rats
Method: For in vivo experiments, 20 mm diameter and 1.2 mm thickness circles of hydrogels were prepared. These samples were sterilized using ethanol (70%) solution, air dried and equilibrated in PBS briefly before placing on the wound. For animal trials, male Sprague-Dawley (SD) rats weighing 140-170 g were used in the study. The animals had free access to food and water and were kept in the animal house facility of the Centre of Excellence in Molecular Biology (CEMB), Lahore. All animals were treated according to procedures approved by the Institutional Animal Ethics Committee at CEMB, Lahore, Pakistan. Animals were anesthetized with ketamine (100 mg/kg body weight) and xylazine (10 mg/kg body weight) and then the fur from the dorsal side was removed with a hair trimmer (Dingling professional hair clipper, RF-608, China). The backs of the rats were completely shaved for adhesive tape fixation and dressing. After shaving, the backs were cleaned with ethanol and then they were transferred onto a clean sterilized table and three circular shaped wounds were created by removing skin at three marked areas with the help of surgical scissors (Noorani Surgical Medical Supplies, Pakistan). Immediately followed the excision process, one of these wounds was covered with sterilized, 2-deoxy-D-ribose-loaded (using 70% ethanol) membrane circles and the other was covered with the same material membranes but without any 2-deoxy-D-ribose. Both the implanted membranes were sutured in position using sterile braided silk sutures (Mersilk, diameter 220 microns). The scaffolds were covered with adhesive plaster (Mepore, Sweden), further dressed with cotton gauze and finally secured with white surgical adhesive tape (Nitto, Japan) to prevent damage from self-grooming. One of these wounds was kept open and covered with dressing only (Mepore, Sweden) to serve as a negative control.
Surgical dressings were removed after three days of membrane implantation. On days 0, 3, 9, 11, 14 and 17 post-wounding, the wounds were measured and photographed. The wound areas were quantified using Image j software. By the end of experiments, on day 17, rats were euthanized with an overdose of anaesthesia and tissue sections from Implantation sites of normal, sham, control and 2-deoxy-D-ribose-loaded scaffold treated groups were removed. The samples were fixed in 3.7% paraformaldehyde (Sigma-Aldrich, USA) solution for 24 hours at room temperature. They were dehydrated using various concentrations of ethanol and water from 70% to 100% and paraffin blocks were made.
Sections of 6 μm thick were cut from the paraffin embedded samples with a microtome (Leica TP 1020 Automatic Tissue Processor) and placed on Superfrost® plus slides (Menzel-Gläser, Denmark). Conventional Haematoxylin and Eosin (H&E) staining and Gouldner's trichrome staining was performed (Yar et al., International Journal of Polymeric Materials and Polymeric Biomaterials. 2016) before mounting in DPX mounting medium (Fisher Scientific) with a coverslip.
For immunohistochemistry, 6 μm sections were processed with a mouse/rabbit specific HRP/DAB (ABC) Detection IHC Kit (Abcam). After rehydration, antigen retrieval and protein blocking steps, the sections were incubated with 3 different monoclonal antibodies (rabbit anti-CD34 (Abcam) 1:1000, mouse anti-CD80 (Santa Cruz) 1:100 and mouse anti-CD163 (AbD Serotec) 1:300) for 2 hours diluted in 1% BSA (Sigma-Aldrich). This was followed by 10 min incubation with a secondary biotinylated goat anti-polyvalent antibody (Abcam Detection IHC Kit). After incubation with an avidin and biotinylated horseradish peroxidase, the target proteins were visualized by incubation in peroxidase substrate and DAB chromogen (Abcam Detection IHC Kit). Samples were then counterstained with haematoxylin, dehydrated, and mounted as per H&E protocol. Controls consisted of samples incubated without primary and secondary antibodies, or incubated only with secondary antibodies. […]

[1] = 17 days, loaded CS/collagen scaffold

## O=CC[C@H](O)[C@H](O)CO [2-deoxy-D-ribose]
[1]
  epithelium and hair follicles (Goldner's trichrome): epithelium and hair follicles already formed
  wound healing by histology (H&E): essentially complete
Added to chitosan/collagen hydrogel
  vascularisation (staining for CD34 positive cells): increase in vascularisation
Day 3, loaded CS/collagen scaffold
  attachment of scaffold to the surrounding tissues: very much attached to the surrounding tissues
Day 9, loaded CS/collagen hydrogel
  wound area: around 50%
Day 11, loaded CS/collagen hydrogel
  wound area healed: more than 50%
Day 17, loaded CS/collagen hydrogel
  wound closure: completely closed
Loaded in CS/collagen hydrogel
  wound healing: accelerated
